According to ChEMBL document CHEMBL3885861, “Open TG-GATES”:

Species: Rattus norvegicus
Test: Open TG-GATES - Regimen: Single
Format: toxicity, organism-based, Sprague-Dawley
Parameters: regimen Single, gender Male, age 6 weeks
Conditions: in vivo, ip, 0.3 mg/kg, route intraperitoneal injection, dose 300 ug/Kg, dose level High; for APTT / Bas / Eos / Fbg / Hb / Ht / Lym / MCH / MCHC / MCV / Mono / Neu / PT / Plat / RBC / Ret / WBC: tissue Blood; for KIDNEY_L / KIDNEY_R / KIDNEY_TOTAL: tissue Kidney; for LIVER: tissue Liver; for A/G / ALP / ALT / AST / BUN / CRE / Ca / Cl / DBIL / GLC / IP / K / LDH / Na / PL / RALB / TBIL / TC / TG / TP / gamma-GTP: tissue Plasma

CC(=O)N[C@H]1[C@@H](O[C@@H]2O[C@H](CC(O)[C@H]3O[C@@H](n4ccc(=O)[nH]c4=O)[C@H](O)[C@@H]3O)[C@H](O)[C@H](O)[C@H]2NC(=O)/C=C/CC(C)C)O[C@H](CO)[C@@H](N)[C@@H]1O (some centres not stated) [TUNICAMYCIN]
TERMINAL_BW (3 h): 222.1 g | APTT (3 h): 21.6 s | Bas (3 h): 0% | Eos (3 h): 0.4% | Fbg (3 h): 288.4 mg/dL | Hb (3 h): 13.1 g/dL | Ht (3 h): 40.3% | Lym (3 h): 80.8% | MCH (3 h): 20.8 pg | MCHC (3 h): 32.5% | MCV (3 h): 64 fL | Mono (3 h): 3% | Neu (3 h): 14.6% | PT (3 h): 15.5 s | Plat (3 h): 108.9 x10_4/uL | RBC (3 h): 630.4 x10_4/ul | Ret (3 h): 8% | WBC (3 h): 89.8 x10_2/uL | KIDNEY_L (3 h): 1 g | KIDNEY_R (3 h): 1 g | KIDNEY_TOTAL (3 h): 2 g | LIVER (3 h): 10.1 g | A/G (3 h): 1.2 | ALP (3 h): 1378 IU/L | ALT (3 h): 38.4 IU/L | AST (3 h): 70.6 IU/L | BUN (3 h): 13.6 mg/dL | CRE (3 h): 0.1 mg/dL | Ca (3 h): 10.9 mg/dL | Cl (3 h): 106.6 meq/L | DBIL (3 h): 0 mg/dL | GLC (3 h): 167.8 mg/dL | IP (3 h): 8.4 mg/dL | K (3 h): 4.4 meq/L | LDH (3 h): 154 IU/L | Na (3 h): 140.4 meq/L | PL (3 h): 127.4 mg/dL | RALB (3 h): 2.9 g/dL | TBIL (3 h): 0.016 mg/dL | TC (3 h): 68.6 mg/dL | TG (3 h): 71 mg/dL | TP (3 h): 5.3 g/dL | gamma-GTP (3 h): 1.4 IU/L | TERMINAL_BW (6 h): 219.8 g | APTT (6 h): 21.5 s | Bas (6 h): 0% | Eos (6 h): 0.8% | Fbg (6 h): 309.6 mg/dL | Hb (6 h): 13.3 g/dL | Ht (6 h): 41% | Lym (6 h): 70.8% | MCH (6 h): 20.8 pg | MCHC (6 h): 32.5% | MCV (6 h): 64 fL | Mono (6 h): 3.2% | Neu (6 h): 24.2% | PT (6 h): 15.9 s | Plat (6 h): 118.2 x10_4/uL | RBC (6 h): 640.4 x10_4/ul | Ret (6 h): 7.6% | WBC (6 h): 84.7 x10_2/uL | KIDNEY_L (6 h): 1 g | KIDNEY_R (6 h): 1 g | KIDNEY_TOTAL (6 h): 1.9 g | LIVER (6 h): 9.1 g | A/G (6 h): 1.2 | ALP (6 h): 1426.6 IU/L | ALT (6 h): 41.4 IU/L | AST (6 h): 73.6 IU/L | BUN (6 h): 12.6 mg/dL | CRE (6 h): 0.1 mg/dL | Ca (6 h): 10.7 mg/dL | Cl (6 h): 107 meq/L | DBIL (6 h): 0.002 mg/dL | GLC (6 h): 173.8 mg/dL | IP (6 h): 9.1 mg/dL | K (6 h): 4.5 meq/L | LDH (6 h): 175.8 IU/L | Na (6 h): 141 meq/L | PL (6 h): 125 mg/dL | RALB (6 h): 2.9 g/dL | TBIL (6 h): 0.012 mg/dL | TC (6 h): 71 mg/dL | TG (6 h): 50.4 mg/dL | TP (6 h): 5.4 g/dL | gamma-GTP (6 h): 1.2 IU/L | TERMINAL_BW (9 h): 212.4 g | APTT (9 h): 20.8 s | Bas (9 h): 0% | Eos (9 h): 0.4% | Fbg (9 h): 307 mg/dL | Hb (9 h): 13.5 g/dL | Ht (9 h): 41.4% | Lym (9 h): 73.8% | MCH (9 h): 20.9 pg | MCHC (9 h): 32.7% | MCV (9 h): 63.7 fL | Mono (9 h): 2.8% | Neu (9 h): 21.4% | PT (9 h): 16.4 s | Plat (9 h): 121.3 x10_4/uL | RBC (9 h): 649.2 x10_4/ul | Ret (9 h): 7.1% | WBC (9 h): 84 x10_2/uL | KIDNEY_L (9 h): 1 g | KIDNEY_R (9 h): 1 g | KIDNEY_TOTAL (9 h): 1.9 g | LIVER (9 h): 8.8 g | A/G (9 h): 1.2 | ALP (9 h): 1397.6 IU/L | ALT (9 h): 43.4 IU/L | AST (9 h): 86.6 IU/L | BUN (9 h): 17.4 mg/dL | CRE (9 h): 0.1 mg/dL | Ca (9 h): 10.5 mg/dL | Cl (9 h): 107.4 meq/L | DBIL (9 h): 0 mg/dL | GLC (9 h): 164.8 mg/dL | IP (9 h): 9.4 mg/dL | K (9 h): 4.4 meq/L | LDH (9 h): 185.6 IU/L | Na (9 h): 140.8 meq/L | PL (9 h): 114.8 mg/dL | RALB (9 h): 3 g/dL | TBIL (9 h): 0.018 mg/dL | TC (9 h): 68.2 mg/dL | TG (9 h): 22.2 mg/dL | TP (9 h): 5.4 g/dL | gamma-GTP (9 h): 1 IU/L | TERMINAL_BW (24 h): 228.7 g | APTT (24 h): 23.4 s | Bas (24 h): 0% | Eos (24 h): 1.2% | Fbg (24 h): 288 mg/dL | Hb (24 h): 13.2 g/dL | Ht (24 h): 41% | Lym (24 h): 76.2% | MCH (24 h): 20.1 pg | MCHC (24 h): 32.2% | MCV (24 h): 62.4 fL | Mono (24 h): 3.6% | Neu (24 h): 18.4% | PT (24 h): 16.5 s | Plat (24 h): 122.4 x10_4/uL | RBC (24 h): 658.2 x10_4/ul | Ret (24 h): 7.2% | WBC (24 h): 97.7 x10_2/uL | KIDNEY_L (24 h): 1 g | KIDNEY_R (24 h): 1 g | KIDNEY_TOTAL (24 h): 1.9 g | LIVER (24 h): 10.8 g | A/G (24 h): 1.3 | ALP (24 h): 1621.2 IU/L | ALT (24 h): 55 IU/L | AST (24 h): 86.6 IU/L | BUN (24 h): 14.8 mg/dL | CRE (24 h): 0.2 mg/dL | Ca (24 h): 10.4 mg/dL | Cl (24 h): 106.4 meq/L | DBIL (24 h): 0 mg/dL | GLC (24 h): 174.4 mg/dL | IP (24 h): 7.5 mg/dL | K (24 h): 4.5 meq/L | LDH (24 h): 181.4 IU/L | Na (24 h): 141.2 meq/L | PL (24 h): 120.8 mg/dL | RALB (24 h): 3 g/dL | TBIL (24 h): 0.012 mg/dL | TC (24 h): 58.4 mg/dL | TG (24 h): 70.8 mg/dL | TP (24 h): 5.3 g/dL | gamma-GTP (24 h): 1.6 IU/L
